Measured values: patent US20200315241A1 (Nude Nicotine, Inc., priority 2017, published 2020)
Read-outs that look alike come from different tables or passages of the source.

Key:
[1] = cited from earlier work
[2] = free-base nicotine; depending on concentration; cited from earlier work
respiratory tract = settings: user perception, nicotine citrate compared with nicotine hexanoate
[3] = nicotine salt complex
[4] = Table 7, nicotine salt (organic acid)
[5] = Table 7, nicotine salt (organic acid), second value
[6] = Table 5, organic acid, second value
[7] = Table 7, nicotine salt (organic acid), third value printed in the cell

| Molecule | pKa [1, 4] | also measured |
| --- | --- | --- |
| Nicotine glutarate | 4.34 |  |
| CN1CCCC1c1cccnc1 (centres unmarked) [nicotine] |  | pH [2]: ~10 |
| Nicotine levulinate | 4.64 | pKa [1]: 4.64 |
| CN1CCCC1c1cccnc1.O=C(O)C=C(CC(=O)O)C(=O)O (stereo not drawn) [Nicotine trans-aconitate] | 2.80 | pKa [1, 5]: 4.46 |
| CN1CCCC1c1cccnc1.NCC(=O)O (centres unmarked) [Nicotine glycinate] | 2.34 |  |
| Nicotine 4-hydroxybenzoate | 4.54 |  |
| CC(=O)CC(=O)O [3-Oxobutanoic Acid (Acetoacetic Acid), 3-Oxobutanoic Acid] |  | pKa ([1]; Table 5, organic acid): 3.58 |
| O=C(O)C[C@H](C(=O)O)[C@@H](O)C(=O)O [Isocitric Acid] |  | pKa ([1]; Table 5, organic acid): 3.29; pKa [1, 6]: 4.71; pKa ([1]; Table 5, organic acid, third value printed in the cell): 6.40 |
| CN1CCCC1c1cccnc1.O=C(O)c1cc(C(=O)O)cc(C(=O)O)c1 [Nicotine trimesate] | 3.12 | pKa [1, 5]: 3.89; pKa [1, 7]: 4.70 |
| Nicotine methioninate | 2.28 |  |
| CN1CCCC1c1cccnc1.O=C(O)CC(O)(CC(=O)O)C(=O)O [Nicotine citrate] |  | throat hit / sensation in the respiratory tract (respiratory tract): stronger throat hit |
| C#CC(=O)O.CN1CCCC1c1cccnc1 (centres unmarked) [Nicotine propiolate] | 1.84 |  |
| Nicotine phthalate | 2.76 | pKa [1, 5]: 4.92 |
| Nicotine isocaproate | 5.09 |  |
| CN1CCCC1c1cccnc1.N[C@@H](Cc1ccccc1)C(=O)O (centres unmarked) [Nicotine phenylalanate] | 1.83 |  |
| CCC(=O)O.CN1CCCC1c1cccnc1 (centres unmarked) [Nicotine propionate] |  | pH [3]: ~6.5 |
| CN1CCCC1c1cccnc1.O=C(O)CC(O)C(=O)O (centres unmarked) [Nicotine malate] |  | pH [3]: around 6.5 |
| CC(=O)C(=O)O [Pyruvic Acid] |  | pKa ([1]; Table 5, organic acid): 2.50 |
| CC(=O)O.CN1CCCC1c1cccnc1 (centres unmarked) [Nicotine acetate] |  | pH [3]: ~6.5 |
| Nicotine cysteinate | 1.96 |  |
| Nicotine 3-hydroxyglutarate | 3.52 |  |

| Molecule | pKa [1, 4] | also measured |
| --- | --- | --- |
| Nicotine acetylsalicylate | 3.49 |  |
| Oxalic Acid |  | pKa ([1]; Table 5, organic acid): 1.46; pKa [1, 6]: 4.40 |
| Nicotine vanillate | 4.51 |  |
| Nicotine tryptophanate | 2.83 |  |
| CN1CCCC1c1cccnc1.O=C(O)C=C(CC(=O)O)C(=O)O (stereo not drawn) [Nicotine cis-aconitate] | 1.95 |  |
| Nicotine acetoacetate | 3.58 |  |
| Nicotine asparaginate | 2.02 |  |
| O=C(O)/C=C(/CC(=O)O)C(=O)O [cis-Aconitic Acid] |  | pKa ([1]; Table 5, organic acid): 1.95 |
| O=C(O)CC(O)C(=O)O (centres unmarked) [Malic Acid] |  | pKa ([1]; Table 5, organic acid): 3.51; pKa [1, 6]: 5.03; pKa1 ([1]; pH for binding of second carboxylic acid group): 5.03 |
| Nicotine pyruvate | 2.50 |  |
| Nicotine 2-hydroxyisocaproate | 4.26 |  |
| Nicotine valerate | 4.84 |  |
| Nicotine valinate | 2.32 |  |
| Nicotine hexanoate | 4.88 |  |
| Nicotine gluconate | 3.86 |  |
| Nicotine cinnamate | 4.44 |  |
| CN1CCCC1c1cccnc1.C[C@H](N)C(=O)O (centres unmarked) [Nicotine alanate] | 2.34 |  |
| Nicotine lysinate | 2.18 |  |
| CN1CCCC1c1cccnc1.O=C(O)CC(C(=O)O)C(O)C(=O)O (centres unmarked) [Nicotine isocitrate] | 3.29 | pKa [1, 5]: 4.71; pKa [1, 7]: 6.40 |
| CN1CCCC1c1cccnc1.O=C(O)C(=O)O.O=C(O)CC(O)C(=O)O (centres unmarked) [Nicotine N-malate-N′-oxalate] |  | pH [3]: ~5.5 |
